One series deals with Klebsiella pneumoniae. As to the kind of experiment: Antibacterial activity against Klebsiella pneumoniae ATCC BAA-1705 after 24 hrs. It is filed as functional. The settings on record: ATCC BAA-1705, 24 h.
In series [1] the test system is Mycobacteroides abscessus. As to the kind of experiment: Antibacterial activity against Mycobacterium abscessus after 7 days by alamar blue assay. The settings on record: 168 h. In kind it is functional. (The colour change of resazurin is a common sign of viable cells or microbes.)
The next series deals with Mycobacteroides chelonae. As to the kind of experiment: Antibacterial activity against Mycobacterium chelonae after 7 days by alamar blue assay. The following applies: 168 h. It is filed as functional.
The subject of a further series is Acinetobacter baumannii. In words: Antibacterial activity against Acinetobacter baumannii ATCC BAA-1605 after 24 hrs. In kind it is functional. The settings on record: ATCC BAA-1605, 24 h.
The subject of the next series is A549. As to the kind of experiment: Cytotoxicity against human A549 cells after 24 hrs by MTT assay. In kind it is functional, cell-based. The settings on record: A549, 24 h.
The test system of the next series is Pseudomonas aeruginosa. As to the kind of experiment: Antibacterial activity against Pseudomonas aeruginosa ATCC 27853 after 24 hrs. It is filed as functional. The following applies: ATCC 27853, 24 h.
Another series relates to DU-145. As to the kind of experiment: Cytotoxicity against human DU145 cells after 24 hrs by MTT assay. In kind it is functional, cell-based. The following applies: DU-145, 24 h. Background: Formazan colour is commonly taken as a measure of viable cells.
In series [2] the test system is Mycobacterium tuberculosis. As to the kind of experiment: Antitubercular activity against Mycobacterium tuberculosis H37Rv after 7 days by alamar blue assay. The following applies: 168 h. It is filed as functional.
The subject of series [3] is Mycolicibacterium fortuitum. In words: Antibacterial activity against Mycobacterium fortuitum after 7 days by alamar blue assay. In kind it is functional. The settings on record: 168 h.
For series [4], the system named is Mycobacterium tuberculosis. As to the kind of experiment: Antitubercular activity against Mycobacterium tuberculosis H37Rv after 6 days by alamar blue assay. In kind it is functional. The following applies: 144 h.
The next series deals with HeLa. As to the kind of experiment: Cytotoxicity against human HeLa cells after 24 hrs by MTT assay. It is filed as functional, cell-based.
Series [5] in a line: Cytotoxicity against HEK cells after 24 hrs by MTT assay. It is filed as cell-based. The following applies: Homo sapiens, HEK293, 24 h.
The test system of the next series is Escherichia coli. In words: Antibacterial activity against Escherichia coli ATCC 25922 after 24 hrs. It is filed as functional. The following applies: ATCC 25922, 24 h.
Series [6] is described as follows: Selectivity index, ratio of IC50 for CHOK1 cells to MIC for Mycobacterium tuberculosis H37Rv. It is filed as toxicity. The following applies: hamster, read-out: Selectivity Index.
The subject of a further series is Staphylococcus aureus. As to the kind of experiment: Antibacterial activity against Staphylococcus aureus ATCC 29213 after 24 hrs. It is filed as functional. The following applies: ATCC 29213, 24 h.
The subject of another series is HepG2. As to the kind of experiment: Cytotoxicity against human HepG2 cells after 24 hrs by MTT assay. It is filed as functional, cell-based. The settings on record: HepG2, 24 h.
The next series has as its system CHO-K1. In words: Cytotoxicity against CHOK1 cells after 24 hrs by MTT assay. It is filed as cell-based. The settings on record: Cricetulus griseus, CHO-K1, 24 h.
A short description of series [7]: Cytotoxicity against […] B16 cells after 24 hrs by MTT assay. It is filed as functional, cell-based. The settings on record: B16, 24 h.
The next series deals with MCF7. In words: Cytotoxicity against human MCF7 cells after 24 hrs by MTT assay. In kind it is functional, cell-based. The following applies: MCF7, 24 h.
Series [8] has as its system Mycobacterium tuberculosis. As to the kind of experiment: Antitubercular activity against Mycobacterium tuberculosis H37Rv assessed as microbial killing at 4 fold MIC incubated for 6 days by MPN assay. In kind it is functional, organism-based.
Series [9] can be described thus: Selectivity index, ratio of IC50 for HEK cells to MIC for Mycobacterium tuberculosis H37Rv. In kind it is toxicity. The following applies: human, read-out: Selectivity Index.

The results in this text go back to ChEMBL document CHEMBL4422644, “Synthesis and evaluation of α-aminoacyl amides as antitubercular agents effective on drug resistant tuberculosis” (Eur J Med Chem, 2019).

Each structure is given as a SMILES string. Converted amounts (≈) assume the structure as drawn. Some results are limits rather than exact numbers.

Turning to `Cc1nc(C)c(C(=O)N(c2cccc(C)c2C)C(C(=O)NC2CCCCC2)c2ccccc2)s1` (stereo unspecified), the MIC is more than 50 µM in the series with Klebsiella pneumoniae; more than 50 µM in series [1]; more than 50 µM in the series on Mycobacteroides chelonae; more than 50 µM in the series on Acinetobacter baumannii; more than 50 µM with Pseudomonas aeruginosa; 12.5 µM (≈ 5.95 µg/mL) in series [2]. Moreover, the minimal inhibitory concentration (MIC) was more than 50 µM in series [3], 12.5 µM (≈ 5.95 µg/mL) in series [4], more than 50 µM in the series with Escherichia coli and more than 50 µM against Staphylococcus aureus. Also, the IC50 was 12.5 µM with A549; 12.6 µM with DU-145; 8.29 µM in the series on HeLa; 34.4 µM in [5]; 9.34 µM with HepG2; 27.9 µM with CHO-K1. The figures for the IC50 (in [7]; in the series on MCF7) were 15.5 µM and 11 µM, respectively. The selectivity ratio in series [6] was 2.1.
Regarding `Cc1nc(C)c(C(=O)N(c2cccc(C)c2C)C(C(=O)NC2CCCCC2)c2cccnc2)s1` (stereo unspecified), the MIC in the series with Klebsiella pneumoniae is more than 50 µM; in series [1] it was more than 50 µM; in the series with Mycobacteroides chelonae, more than 50 µM; with Acinetobacter baumannii, more than 50 µM; in the series on Pseudomonas aeruginosa it was more than 50 µM; in series [2], 0.78 µM (≈ 0.372 µg/mL). Besides, the MIC (in series [3]; against Escherichia coli; in the series with Staphylococcus aureus) was more than 50 µM in each case. In addition, the IC50 in the series on A549 came out at 8.62 µM; in the series with DU-145, 10 µM; in the series on HeLa, 9.58 µM; in series [5], 81.1 µM; in the series with HepG2 it was 14 µM; in the series with CHO-K1 it was 107 µM. Moreover, the IC50 in series [7] came to 13.4 µM; in the series on MCF7, 6.39 µM. Further, the Activity result in [8] was “Dose-dependent effect”. The selectivity ratio came to 136 in [6] and 104 in series [9].
Regarding `Cc1ccc(N(C(=O)c2sc(C)nc2C)C(C(=O)NC2CCCCC2)c2cccnc2)cc1` (stereo unspecified), the MIC in the series on Klebsiella pneumoniae is more than 50 µM; in series [1] it was more than 50 µM; in the series with Mycobacteroides chelonae, more than 50 µM; in the series with Acinetobacter baumannii, more than 50 µM; against Pseudomonas aeruginosa, more than 50 µM; in series [2], 3.12 µM (≈ 1.44 µg/mL). For the same compound, the MIC (in series [3]; in the series on Escherichia coli; with Staphylococcus aureus) was more than 50 µM in each case. Also, the IC50 was determined as 11.7 µM in the series with A549; 16.6 µM in the series on DU-145; 9.11 µM with HeLa; 59.1 µM in series [5]; 6.75 µM in the series on HepG2; 161 µM in the series with CHO-K1. The 50% inhibitory concentration (IC50) is 17.7 µM in [7] and 5.99 µM with MCF7. Moreover, the selectivity ratio in [6] stood at 51.6; in series [9], 18.9.
For the compound `Cc1cccc(N(C(=O)c2c(C)noc2C)C(C(=O)NC2CCCCC2)c2ccccc2)c1C` (stereo unspecified), the MIC in the series with Klebsiella pneumoniae is more than 50 µM; in series [1] it was more than 50 µM; with Mycobacteroides chelonae, more than 50 µM; with Acinetobacter baumannii, more than 50 µM; against Pseudomonas aeruginosa it was more than 50 µM; in series [2] it was 3.12 µM (≈ 1.43 µg/mL). Further, the MIC (in series [3]; in the series on Escherichia coli; in the series on Staphylococcus aureus) was more than 50 µM each time. Besides, the IC50 was 8.49 µM in the series with A549; 9.95 µM in the series with DU-145; 8.67 µM in the series with HeLa; 97.6 µM in series [5]; 10.4 µM with HepG2; 47.5 µM in the series on CHO-K1. For the same compound, the values for the IC50 (in series [7]; in the series on MCF7) were 27.7 µM and 3.05 µM, respectively. Besides, the selectivity ratio in series [6] was 15.1; in [9], 31.3.
For the compound `Cc1nc(C)c(C(=O)N(c2cccc(C)c2C)C(C(=O)NC2CCCCC2)c2ccncc2)s1` (stereo unspecified), the MIC with Klebsiella pneumoniae is more than 50 µM; in [1], more than 50 µM; against Mycobacteroides chelonae it was more than 50 µM; in the series with Acinetobacter baumannii, more than 50 µM; in the series on Pseudomonas aeruginosa it was more than 50 µM; in series [2], 1.56 µM (≈ 0.744 µg/mL). The MIC (in series [3]; with Escherichia coli; with Staphylococcus aureus) was more than 50 µM throughout. In addition, the IC50 came out at 6.6 µM in the series with A549; 10.9 µM with DU-145; 10.5 µM with HeLa; 48.9 µM in [5]; 14.5 µM with HepG2; 71.8 µM with CHO-K1. Also, the values for the concentration for half-maximal inhibition (IC50) (in [7]; in the series with MCF7) were 11.6 µM and 4.49 µM, respectively. Further, the results for the selectivity ratio in [6] and in [9] were 45.5 and 31.4, respectively.
Regarding `Cc1cccc(N(C(=O)C2CCCCN2)C(C(=O)NC2CCCCC2)c2ccccc2)c1C` (stereo unspecified), the MIC was more than 50 µM in the series on Klebsiella pneumoniae; more than 50 µM in [1]; more than 50 µM in the series with Mycobacteroides chelonae; more than 50 µM with Acinetobacter baumannii; more than 50 µM against Pseudomonas aeruginosa; 3.12 µM (≈ 1.4 µg/mL) in series [2]. Besides, the MIC (in [3]; in the series with Escherichia coli; against Staphylococcus aureus) was more than 50 µM each time. Further, the IC50 in the series on A549 is 9.74 µM; in the series with DU-145 it was 8.82 µM; in the series with HeLa, 10.3 µM; in [5], 174 µM; in the series on HepG2, 10.6 µM; in the series on CHO-K1, 54.4 µM. Also, the results for the IC50 (in series [7]; in the series with MCF7) were 16.4 µM and 3.31 µM, respectively. Further, the values for the selectivity ratio in series [6] and in [9] were 4.3 and 55.7, respectively.
In the case of `Cc1ccc(N(C(=O)c2sc(C)nc2C)C(C(=O)NC2CCCCC2)c2ccccc2)cc1` (stereo unspecified), the MIC was more than 50 µM in the series with Klebsiella pneumoniae; more than 50 µM in [1]; more than 50 µM against Mycobacteroides chelonae; more than 50 µM in the series with Acinetobacter baumannii; more than 50 µM with Pseudomonas aeruginosa; 1.56 µM (≈ 0.72 µg/mL) in series [2]. Besides, the MIC (in [3]; against Escherichia coli; in the series with Staphylococcus aureus) was more than 50 µM each time. For the same compound, the IC50 is 1.48 µM in the series with A549; 14 µM with DU-145; 10.7 µM in the series with HeLa; 37 µM in series [5]; 11.8 µM in the series with HepG2; 17.9 µM with CHO-K1. In addition, the figures for the IC50 (in series [7]; with MCF7) were 13.9 µM and 3.69 µM, respectively. The selectivity ratio in [6] turned out to be 10.9.
Regarding `Cc1ccc(N(C(=O)c2ccc[nH]2)C(C(=O)NC2CCCCC2)c2cccnc2)cc1` (stereo unspecified), the MIC is more than 50 µM against Klebsiella pneumoniae; more than 50 µM in [1]; more than 50 µM against Mycobacteroides chelonae; more than 50 µM against Acinetobacter baumannii; more than 50 µM in the series with Pseudomonas aeruginosa; 12.5 µM (≈ 5.21 µg/mL) in [2]. Moreover, the MIC (in series [3]; in the series on Escherichia coli; with Staphylococcus aureus) was more than 50 µM in each case. The IC50 was 15.2 µM in the series with A549; 15.5 µM in the series on DU-145; 12 µM in the series on HeLa; 120 µM in series [5]; 11.5 µM with HepG2; 135 µM in the series with CHO-K1. The IC50 in series [7] came to 18.4 µM; in the series with MCF7, 5.61 µM. Also, the selectivity ratio in series [6] is 10.7.

A word on the MIC: it is the lowest concentration that inhibits growth of the organism. A higher MIC goes with a less susceptible organism. For orientation: IC50 means the midpoint of a concentration-inhibition curve. Low readings indicate inhibition by little substance, high ones a need for much substance.
